Where two headings read alike, the source gives them in different places.
Biological target: SARS-CoV-2 3CL protease (Severe acute respiratory syndrome coronavirus 2, UniProt P0DTD1)
Experiment: Inhibitory activity test against SARS-CoV-2 3CL proteases
Type: biochemical
[1] = read-out: IC50 (50% SARS-CoV-2 3CL protease inhibitory concentration)
[2] = IC50 (50% SARS-CoV-2 3CL protease inhibitory concentration)

SMILES | IC50 [1] [nM] | IC50 [2] [nM]
COc1cc(-c2cc(CC(=O)NC3CCN(C)CC3)ccc2Cl)cc2c1c(=O)n(-c1cncc(Cl)c1)c(=O)n2Cc1cc(F)c(F)c(F)c1 [Compound I-0197] | < 100 | –
COc1cc(-c2c(Cl)ccc3c2CN(C)C3=O)cc2c1c(=O)n(Cc1ncn(C)n1)c(=O)n2Cc1cc(F)c(F)c(F)c1 [Compound I-0278] | 26 | –
COc1nc(-c2cc3c(cc2Cl)NC(=O)C3)cc2c1c(=O)n(Cc1ncn(C)n1)c(=O)n2Cc1cc(F)c(F)c(F)c1 [Compound I-0032] | 9.4 | –
CNC(=O)c1ccc(Cl)c(-c2cc(OC)c3c(=O)n(Cc4ncn(C)n4)c(=O)n(Cc4cc(F)c(F)c(F)c4)c3c2)c1 [Compound I-0213] | 33 | –
COc1cc(-c2cc(N=S(C)(C)=O)ccc2Cl)cc2c1c(=O)n(-c1cncc(Cl)c1)c(=O)n2Cc1cc(F)c(F)c(F)c1 [Compound I-0210] | 28 | –
COc1cc(-c2cc(CC(=O)NCCN(C)C)ccc2Cl)cc2c1c(=O)n(-c1cncc(Cl)c1)c(=O)n2Cc1cc(F)c(F)c(F)c1 [Compound I-0204] | < 100 | –
Cn1cnc(Cn2c(=O)c3c4c(c(-c5cc(C#N)ccc5Cl)cc3n(Cc3cc(F)c(F)c(F)c3)c2=O)CCCO4)n1 [Compound I-0460] | 9.2 | –
COc1nc(C2=CC3CCC(C2)N3)cc2c1c(=O)n(-c1cncc(Cl)c1)c(=O)n2Cc1cc(F)c(F)c(F)c1 (centres unmarked) [Compound I-0464] | – | 11
COc1ccc(Cl)c(-c2cc(OC)c3c(=O)n(Cc4ncn(C)n4)c(=O)n(Cc4cc(F)c(F)c(F)c4)c3c2)c1 [Compound I-0523] | 32 | –
COc1cc(-c2cc(CC(=O)NC3CCN(C)CC3)ccc2Cl)cc2c1c(=O)n(-c1cncc(Cl)c1)c(=O)n2Cc1ccc(F)c(C#N)c1 [Compound I-0201] | < 100 | –
COc1cc(-c2cc(CC(N)=O)ccc2Cl)cc2c1c(=O)n(-c1cncc(Cl)c1)c(=O)n2Cc1cc(Cl)ccc1C [Compound I-0191] | < 100 | –
COc1nc(N2CC[C@@H](C(N)=O)C2)cc2c1c(=O)n(-c1cncc(Cl)c1)c(=O)n2Cc1cc(F)c(F)c(F)c1 [Compound I-0511] | < 100 | –
Cn1cnc(Cn2c(=O)c3c4c(c(N5CC[C@@H](O)C5)cc3n(Cc3cc(F)c(F)c(F)c3)c2=O)CCO4)n1 [Compound I-0415] | < 100 | –
COc1cc(-c2c(Cl)ccc3c(=O)[nH]ccc23)cc2c1c(=O)n(Cc1ncn(C)n1)c(=O)n2Cc1cc(F)c(F)c(F)c1 [Compound I-0274] | 15 | –
COc1cc(-c2cc3c[nH]nc3cc2Cl)cc2c1c(=O)n(Cc1ncn(C)n1)c(=O)n2Cc1cc(F)c(F)c(F)c1 [Compound I-0115] | 9.3 | –
CCn1c(-c2cc(C#N)ccc2Cl)cc2c(c1=O)c(=O)n(-c1cncc(Cl)c1)c(=O)n2Cc1cc(F)c(F)c(F)c1 [Compound I-0437] | 1.3 | –
O=C1Cc2cc(-c3cc(F)c4c(=O)n(-c5cncc(Cl)c5)c(=O)n(Cc5cc(F)c(F)c(F)c5)c4c3)c(Cl)cc2N1 [Compound I-0071] | < 100 | –
Cn1cnc(Cn2c(=O)c3c4occc4c(-c4cc(C#N)ccc4Cl)cc3n(Cc3cc(F)c(F)c(F)c3)c2=O)n1 [Compound I-0473] | 4.1 | –
Cn1cnc(Cn2c(=O)c3c(F)cc(-c4cc5c(cc4Cl)NC(=O)C5)c(F)c3n(Cc3cc(F)c(F)c(F)c3)c2=O)n1 [Compound I-0002] | 6.2 | –
COc1cc(-c2nc3c(cc2Cl)NC(=O)C3)cc2c1c(=O)n(Cc1ncn(C)n1)c(=O)n2Cc1cc(F)c(F)c(F)c1 [Compound I-0005] | 10 | –

SMILES | IC50 [1] [nM] | IC50 [2] [nM]
COc1nc(N2C[C@H]3C[C@@H]2CN3)cc2c1c(=O)n(-c1cncc(Cl)c1)c(=O)n2Cc1cc(F)c(F)c(F)c1 [Compound I-0459] | < 100 | –
COc1nc(N2C[C@H]3C[C@@H]2CN3)cc2c1c(=O)n(Cc1ncn(C)n1)c(=O)n2Cc1cc(F)c(F)c(F)c1 [Compound I-0389] | 1.9 | –
COc1cc(-c2cc(CC(N)=O)ccc2Cl)cc2c1c(=O)n(-c1cncc(Cl)c1)c(=O)n2Cc1cc(F)c(F)c(F)c1 [Compound I-0206] | < 100 | –
Cn1cnc(Cn2c(=O)c3c(=O)[nH]c(-c4cc(C#N)ccc4Cl)cc3n(Cc3cc(F)c(F)c(Cl)c3)c2=O)n1 [Compound I-0172] | < 100 | –
COc1cc(-c2c(Cl)ccc3c2CNC3=O)cc2c1c(=O)n(Cc1ncn(C)n1)c(=O)n2Cc1cc(F)c(F)c(F)c1 [Compound I-0277] | 24 | –
COc1cc(-c2cc(CC(=O)O)ccc2Cl)cc2c1c(=O)n(-c1cncc(Cl)c1)c(=O)n2Cc1cc(Cl)ccc1C [Compound I-0198] | < 100 | –
COc1cc(-c2cc(S(N)(=O)=O)ccc2Cl)cc2c1c(=O)n(Cc1ncn(C)n1)c(=O)n2Cc1cc(F)c(F)c(F)c1 [Compound I-0118] | < 100 | –
Cn1cnc(Cn2c(=O)c3c4c(c(-c5cc(N=S(C)(C)=O)ccc5Cl)cc3n(Cc3cc(F)c(F)c(F)c3)c2=O)CCO4)n1 [Compound I-0472] | < 100 | –
COc1cc(-c2cc(C(C)(C)O)ccc2Cl)cc2c1c(=O)n(Cc1ncn(C)n1)c(=O)n2Cc1cc(F)c(F)c(F)c1 [Compound I-0276] | 24 | –
COc1cc(-c2cc(C3COC3)ccc2Cl)cc2c1c(=O)n(Cc1ncn(C)n1)c(=O)n2Cc1cc(F)c(F)c(F)c1 [Compound I-0283] | 32 | –
Cn1cnc(Cn2c(=O)c3c(=O)n(C)c(-c4cc(C#N)ccc4Cl)cc3n(Cc3cc(F)c(F)c(Cl)c3)c2=O)n1 [Compound I-0162] | 0.8 | –
Cn1cnc(Cn2c(=O)c3c(Cl)cc(-c4cc5cn[nH]c5cc4Cl)cc3n(Cc3cc(F)c(F)c(Cl)c3)c2=O)n1 [Compound I-0173] | < 100 | –
COc1nc(N2CCC(C#N)C2)cc2c1c(=O)n(Cc1ncn(C)n1)c(=O)n2Cc1cc(F)c(F)c(F)c1 (centres unmarked) [Compound I-0451] | < 100 | –
COc1cc(-c2cc(S(C)(=N)=O)ccc2Cl)cc2c1c(=O)n(Cc1ncn(C)n1)c(=O)n2Cc1cc(F)c(F)c(F)c1 (centres unmarked) [Compound I-0207] | 23 | –
COc1cc(-c2nc3[nH]c(=O)[nH]c3cc2Cl)cc2c1c(=O)n(Cc1ncn(C)n1)c(=O)n2Cc1cc(F)c(F)c(F)c1 [Compound I-0001] | 5.3 | –
Cn1cnc(Cn2c(=O)c3c(=O)n(C)c(-c4cc(C#N)ccc4Cl)cc3n(Cc3cc(F)c(F)c(F)c3)c2=O)n1 [Compound I-0169] | 2.7 | –
COc1cc(-c2cc(C(C)=O)ccc2Cl)cc2c1c(=O)n(-c1cncc(C)c1)c(=O)n2Cc1ccc(F)c(C#N)c1 [Compound I-0062] | 3.1 | –
COc1nc(N2CC[C@@H](OC)C2)cc2c1c(=O)n(Cc1ncn(C)n1)c(=O)n2Cc1cc(F)c(F)c(F)c1 [Compound I-0449] | 37 | –
COc1cc(-c2cc(C(=O)NCCO)ccc2Cl)cc2c1c(=O)n(Cc1ncn(C)n1)c(=O)n2Cc1cc(F)c(F)c(F)c1 [Compound I-0214] | < 100 | –
CNC(=O)Cn1c(=O)c2c3c(c(-c4cc(C#N)ccc4Cl)cc2n(Cc2cc(F)c(F)c(F)c2)c1=O)CCO3 [Compound I-0443] | < 100 | –

SMILES | IC50 [1] [nM] | IC50 [2] [nM]
Cc1cncc(-n2c(=O)c3c(F)cc(-c4cc(C#N)ccc4Cl)cc3n(Cc3ccc(F)c(C#N)c3)c2=O)c1 [Compound I-0050] | < 100 | –
Cn1cnc(Cn2c(=O)c3c(cc(-c4cc(C#N)ccc4Cl)n4cnnc34)n(Cc3cc(F)c(F)c(F)c3)c2=O)n1 [Compound I-0644] | < 100 | –
Cn1cnc(Cn2c(=O)c3c(F)cc(-c4nc5c(cc4Cl)NC(=O)C5)cc3n(Cc3cc(F)c(F)c(F)c3)c2=O)n1 [Compound I-0009] | 21 | –
COc1cc(-c2cc(C(=O)NCCOCCO)ccc2Cl)cc2c1c(=O)n(-c1cncc(C)c1)c(=O)n2Cc1ccc(F)c(C#N)c1 [Compound I-0196] | 11 | –
Cn1cnc(Cn2c(=O)c3c(F)cc(-c4cc(-c5nnc(N)o5)ccc4Cl)cc3n(Cc3cc(F)c(F)c(F)c3)c2=O)n1 [Compound I-0080] | 34 | –
COc1cc(-c2cc(C(=O)NCCN(C)C)ccc2Cl)cc2c1c(=O)n(Cc1ncn(C)n1)c(=O)n2Cc1cc(F)c(F)c(F)c1 [Compound I-0212] | < 100 | –
CC1COc2c1c(N1CC[C@@H](O)C1)cc1c2c(=O)n(Cc2ncn(C)n2)c(=O)n1Cc1cc(F)c(F)c(F)c1 (some centres unmarked) [Compound I-0440] | 10 | –
COc1nc(N2C[C@@H]3CC[C@H]2CN3)cc2c1c(=O)n(-c1cncc(Cl)c1)c(=O)n2Cc1cc(F)c(F)c(Cl)c1 [Compound I-0540] | < 100 | –
COc1nc(-c2cc(C#N)ccc2Cl)cc2c1c(=O)n(Cc1ncn(C)n1)c(=O)n2Cc1cc(F)c(F)c(Cl)c1 [Compound I-0174] | 16 | –
COc1cc(-c2cc(S(C)(=N)=O)ccc2Cl)cc2c1c(=O)n(-c1cncc(Cl)c1)c(=O)n2Cc1cc(F)c(F)c(F)c1 (centres unmarked) [Compound I-0188] | 5.8 | –
O=c1[nH]cccc1Cn1c(=O)c2ccc(N3C[C@@H]4CC[C@H]3CN4)cc2n(Cc2cc(F)c(F)c(F)c2)c1=O [Compound I-0380] | 14 | –
COc1cc(-c2cc(CC(=O)NCCS(C)(=O)=O)ccc2Cl)cc2c1c(=O)n(-c1cncc(Cl)c1)c(=O)n2Cc1cc(F)c(F)c(F)c1 [Compound I-0202] | 20 | –
Cc1cncc(-n2c(=O)c3c(Cl)cc(-c4cc(CO)ccc4Cl)cc3n(Cc3ccc(F)c(C#N)c3)c2=O)c1 [Compound I-0014] | 30 | –
COc1cc(-c2cc3c(cc2Cl)NC(=O)C3)cc2c1c(=O)n(-c1cncc(C)c1)c(=O)n2Cc1ccc(F)c(C#N)c1 [Compound I-0060] | 2.7 | –
COc1cc(-c2cc(CC(=O)NCCN(C)C)ccc2Cl)cc2c1c(=O)n(-c1cncc(Cl)c1)c(=O)n2Cc1ccc(F)c(C#N)c1 [Compound I-0203] | < 100 | –
Cn1cnc(Cn2c(=O)c3ccc(N4C[C@H]5C[C@@H]4CN5)cc3n(Cc3cc(F)c(F)c(F)c3)c2=O)n1 [Compound I-0393] | < 100 | –
COc1nc(N2[C@@H]3CC[C@H]2CNC3)cc2c1c(=O)n(-c1cncc(Cl)c1)c(=O)n2Cc1cc(F)c(F)c(F)c1 [Compound I-0541] | – | 3.4
N#Cc1ccc(Cl)c(-c2cc3c(c4c2CCO4)c(=O)n(Cc2cc(F)c[nH]c2=O)c(=O)n3Cc2cc(F)c(F)c(F)c2)c1 [Compound I-0504] | < 100 | –
COc1cc(-c2cc(CN=S(C)(C)=O)ccc2Cl)cc2c1c(=O)n(Cc1ncn(C)n1)c(=O)n2Cc1cc(F)c(F)c(F)c1 [Compound I-0363] | 35 | –

— patent publication US20240400560A1, “BICYCLIC HETEROCYCLIC DERIVATIVE HAVING VIRAL GROWTH INHIBITORY ACTIVITY AND PHARMACEUTICAL COMPOSITION CONTAINING SAME” (Shionogi & Co., Ltd., priority 2021, published 2024)
